According to US8283291B2, “Herbicidal composition” (Kumiai Chemical Industry Co., Ltd., priority 2006, dated 2012):

How the values were obtained:
Experiment in all cases: Test on herbicidal effects against weeds and phytotoxicity by foliage treatment in upland field
Details in all cases: 25 gai/ha, 21st day
corn (ZEAMX) = assay type: in vivo
Experimental: (§1) In a plastic pot of 11 cm in length×11 cm in width×11 cm in depth, the upland soil was filled, and seeds of corn (ZEAMX), soybean (GLXMA), greenfoxtail (SETVI), shattercane (SORVU), redroot pigweed (AMARE), Ipomoea lacunosa L. (IPOLA) and velvetleaf (ABUTH) were sown and covered with soil.
(§2) Then, cultivation was carried out in a greenhouse for 10 days. Then, a wettable powder prepared in accordance with Formulation Example 1 was weighed so that active ingredients would be the prescribed amounts, […] spray at a rate of 500 liter per 1 hectare. Thereafter, cultivation was carried out in a greenhouse, and on the 21st day after the treatment, the herbicidal effects and phytotoxicity were examined in accordance with the standards as identified in Table 15.

soybean (GLXMA) = assay type: in vivo
Experimental: as §1, §2

greenfoxtail (SETVI) = assay type: in vivo, Setaria viridis
Experimental: as §1
(§3) Then, cultivation was carried out in a greenhouse for 10 days. Then, a wettable powder prepared in accordance with Formulation Example 1 was weighed so that active ingredients would be the prescribed amounts, diluted with water and uniformly applied on the soil surface by means of a small size spray at a rate of 500 liter per 1 hectare. Thereafter, cultivation was carried out in a greenhouse, and on the 21st day after the treatment, the herbicidal effects and phytotoxicity were examined in accordance with the standards as identified in Table 15.

shattercane (SORVU) = assay type: in vivo, Sorghum vulgare
Experimental: as §1, §3

redroot pigweed (AMARE) = assay type: in vivo, Amaranthus retroflexus L.
Experimental: as §1, §3

[1] = system: Ipomoea lacunosa L. (IPOLA); assay type: in vivo
Experimental: as §1, §3

velvetleaf (ABUTH) = assay type: in vivo, Abutilon theophrasti
Experimental: as §1, §3

In the case of COCc1cccc(C(O)c2nc(OC)cc(OC)n2)c1NS(=O)(=O)C(F)F (stereo not shown) [Pyrimisulfan], the “phytotoxicity ZEAMX” value (corn (ZEAMX)) is reported as 2 (Herbicidal effect or phytotoxicity of at least 20% and less than 30%), the “phytotoxicity GLXMA” value (soybean (GLXMA)) is reported as 2 (Herbicidal effect or phytotoxicity of at least 20% and less than 30%) and the “herbicidal effect SETVI” value (greenfoxtail (SETVI)) is reported as 6 (Herbicidal effect or phytotoxicity of at least 60% and less than 70%). For the same compound, the “herbicidal effect SORVU” value (shattercane (SORVU)) was 8 (Herbicidal effect or phytotoxicity of at least 80% and less than 90%), the “herbicidal effect AMARE” value (redroot pigweed (AMARE)) was 10 (Herbicidal effect or phytotoxicity of 100%) and the “herbicidal effect IPOLA” value [1] was 9 (Herbicidal effect or phytotoxicity of at least 90% and less than 100%). For the same compound, the “herbicidal effect ABUTH” value (velvetleaf (ABUTH)) was 10 (Herbicidal effect or phytotoxicity of 100%).
